Read-outs that look alike come from different tables or passages of the source.
How the values were obtained:
[1] = molecular target: T1, OAT1 (Homo sapiens, UniProt Q4U2R8); assay: [14C]-PAH uptake and its inhibition in HEK293-Flp-In OAT1 cells
T1 sequence (Q4U2R8 1-563): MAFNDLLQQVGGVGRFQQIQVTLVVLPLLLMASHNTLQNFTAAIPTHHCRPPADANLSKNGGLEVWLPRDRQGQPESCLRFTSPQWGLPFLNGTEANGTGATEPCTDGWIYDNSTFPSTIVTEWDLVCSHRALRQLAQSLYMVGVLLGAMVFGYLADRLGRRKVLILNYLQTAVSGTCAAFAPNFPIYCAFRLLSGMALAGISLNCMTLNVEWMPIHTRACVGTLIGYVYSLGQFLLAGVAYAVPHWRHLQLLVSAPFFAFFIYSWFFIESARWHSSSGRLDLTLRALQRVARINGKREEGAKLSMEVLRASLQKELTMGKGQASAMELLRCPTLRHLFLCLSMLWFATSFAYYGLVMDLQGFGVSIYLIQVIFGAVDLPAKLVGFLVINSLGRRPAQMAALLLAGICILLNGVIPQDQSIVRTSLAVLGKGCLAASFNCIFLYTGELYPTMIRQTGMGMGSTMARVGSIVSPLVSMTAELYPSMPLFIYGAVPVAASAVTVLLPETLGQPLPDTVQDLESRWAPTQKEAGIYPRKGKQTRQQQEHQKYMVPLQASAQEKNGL
Procedure: All uptake experiments were performed on 24- or 96-well plates. Before the experiment initiation, the cells were incubated with either 500 or 200 µL∙well^−1 prewarmed buffer for 10 min at 37 °C in a microplate incubator (VWR International AB, Stockholm, Sweden), without shaking. […] The experiment was stopped by adding 200 µL∙well^−1 of ice-cold buffer and subsequent rinse three times with the same amount of buffer. In Lab. 1 the sample analysis of the OAT1/OAT3/mock studies consisted in removing the rinsing buffer and lysing the cells with 70 µL 1M NaOH, following by incubation for 60 min at 37 °C and 100 rpm. A total of 50 µL of cell lysate from each well was transferred to 96-well Luma plates bottom coated with dry scintillant. Then, 2∙20 µL of each donor and three 50 µL blank samples were applied on the same plate. The dry plates were covered with transparent seals and analyzed using a TopCount NXT Microplate Scintillation and Luminescence Counter (Perkin Elmer, Waltham, MA, USA). The remaining 20 µL cell lysate was neutralized with 20 µL 1M HCl∙well^−1, samples were mixed thoroughly and the total protein content in all the wells was measured using a BCA protein assay kit, microplate method, and a Tecan Safire II fluorometer (Tecan Austria GmbH, Grödig, Austria). For the experiments in Lab. 2, the cells were lysed by adding 200 µL 0.1% Triton X-100 and incubated for 5 min at 37 °C and 100 rpm. […] The total protein content was measured by using a BCA protein assay kit and a FLUOStar Omega fluorescence microplate reader (BMG Labtech, Ortenberg, Germany). The protein assay for the OAT3 and mock cell lines was performed in four independent wells of each cell line, seeded and treated in the same manner as the cells used in the uptake assay. For all the OAT1, OAT3, and mock isotope uptake studies, the radiolabelled tracer accumulation (pmol) in each well was calculated by first determining the activity of the isotope (DPM∙pmol^−1) from the radioactivity (DPM) of the donor sample divided by the theoretical isotope concentration (pmol), then dividing the total radioactivity in the well (DPM) to the specific activity of the isotope (DPM∙pmol^−1).
A range of preincubation solutions was prepared at the same concentrations of acamprosate applied in the inhibition assays. Acamprosate was dissolved in HBSS buffered with 10 mM HEPES and the pH was adjusted to 7.40 ± 0.01. The preincubation solutions were prewarmed to 37 °C and applied to the corresponding cells after removing the cell growth medium. The preincubation was done for 3 h, at 37 °C, without shaking. After the preincubation, the solutions were removed, and the inhibition experiment was performed as described in the Section 2.6.
The obtained intracellular amounts (pmol) were normalized to the assay time (min) and cell surface area (cm^2) or protein amount (mg protein) to obtain a term hereafter referred to as uptake rate. The uptake rate of acamprosate as a function of concentration was fitted to a Michaelis–Menten type equation which includes a saturable and a non-saturable uptake component, (1) V=Vmax · [S]/Km +[S]+P · [S] where V is the substrate uptake rate; Vmax is the maximal uptake rate; P is a constant related to non-saturable apparent uptake, i.e., factors such as passive diffusion, unspecific binding and residual compound present after washing steps, and [S] is the substrate concentration (µM). […] Assuming competitive interaction, equilibrium dissociation constants, Ki, were calculated from the IC50 value for each substrate/inhibitor pair, at substrate Km, using the Cheng–Prusoff equation [24].

[2] = no reference given; cited from earlier work
[3] = cited from earlier work

In the case of `CC(=O)NCCCS(=O)(=O)O` [acamprosate, acetylhomotaurinate], the “effect on uptake of [14C]-PAH in OAT1 expressing cells” value ([1]; 9.5 µM [14C]-PAH, 200 µM PAH, 300 µM probenecid, 1000 and 10,000 µM acamprosate, Lab. 1) is reported as “significantly decreased”, the IC50 ([1]; IC50, 3 h, inhibition of PAH uptake via OAT1, 9.5 µM [14C]-PAH, after 3 h preincubation with inhibitor, Lab. 2) is reported as 582 µM and the IC50 ([1]; IC50, inhibition of PAH uptake via OAT1, 9.5 µM [14C]-PAH, 3 min, applied concomitantly, Lab. 2) is reported as 638 µM. It also gave an IC50 ([1]; IC50, inhibition of PAH uptake via OAT1, 9.5 µM [14C]-PAH, 5 min, Lab. 1) of 1390 µM, a Ki ([1]; Ki of acamprosate on PAH uptake, fit to competitive kinetics (Equation 4), Lab. 2) of 1230 ± 341 µM and a Ki ([1]; Ki, inhibition of PAH uptake via OAT1, 3 h, Cheng-Prusoff, after 3 h preincubation, Lab. 2) of 287 µM. The Ki ([1]; Ki, inhibition of PAH uptake via OAT1, Cheng-Prusoff from IC50, competitive inhibition assumed, Lab. 1) was 1140 µM, the Ki ([1]; Ki, inhibition of PAH uptake via OAT1, Cheng-Prusoff, applied concomitantly, Lab. 2) was 315 µM and the “effect of 3 h preincubation on inhibition of [14C]-PAH uptake” value ([1]; OAT1 expressing cells, 0–10,000 µM acamprosate, 200 µM PAH, 300 µM probenecid, Lab. 2) was “no apparent effect”. For the same compound, the Ki ([1]; OAT1 inhibiting Ki-value) was 638 µM, the “mechanism of inhibition of OAT1-mediated PAH transport” value ([1]; PAH uptake with 0, 625, 1250 or 2500 µM acamprosate, Lab. 2) was “competitive” and the Ki ([1]; human, Ki values, inhibition of OAT1-mediated transport of PAH, range over the two laboratories) was 582 to 1230 µM. For the same compound, the IC50 ([1]; human, hek293-flp-in oat1 cells, IC50, p-Aminohippuric Acid (PAH), input for DDI index, Table A1, for acamprosate interval of obtained values) was 287 to 1230 µM, the IC50 ([1]; log IC50 ± log S.E.M., 3 h, inhibition of PAH uptake via OAT1, after 3 h preincubation, Lab. 2, log of IC50 in µM) was 631 µM and the IC50 ([1]; log IC50 ± log S.E.M., inhibition of PAH uptake via OAT1, 9.5 µM [14C]-PAH, 5 min, Lab. 1, log of IC50 in µM) was 1260 µM. For the same compound, the IC50 ([1]; log IC50 ± log S.E.M., inhibition of PAH uptake via OAT1, 3 min, applied concomitantly, Lab. 2, log of IC50 in µM) was 631 µM, the logP [2] was −3.57 and the pKa [2] was 1.83. For the same compound, the Cmax ([3]; acamprosate, IV bolus, 333 mg) was 153 ± 38 µM, the Cmax ([3]; acamprosate, IV bolus, 666 mg) was 214 ± 10 µM and the Cmax ([3]; acamprosate, IV bolus, 710 mg) was 230 ± 64 µM. For the same compound, the Cmax ([3]; acamprosate, IV bolus, 1420 mg) was 486 ± 106 µM, the Cmax ([3]; acamprosate, IV bolus, 2130 mg) was 768 ± 149 µM and the “fu, fraction unbound in plasma” value ([3]; acamprosate, all doses and routes of Table A1) was 1 [5]. For the same compound, the Cmax ([3]; acamprosate, oral solution, 333 mg) was 1.8 ± 0.8 µM, the Cmax ([3]; acamprosate, oral solution, 666 mg) was 4.3 ± 1.4 µM and the Cmax ([3]; acamprosate, oral solution, 1332 mg) was 5 ± 1.7 µM. The Cmax ([3]; acamprosate, oral solution, 2664 mg) was 8.6 ± 4.1 µM, the Cmax ([3]; acamprosate, oral tablet, 666 mg) was 1.4 ± 1.1 µM and the Cmax ([3]; acamprosate, oral tablet, 1332 mg) was 1.5 ± 0.1 µM. The plasma levels ([3]; administered orally, humans) was 1 to 9 µM, the metabolism in humans [3] was “not metabolized” and the “share of the eliminated dose accounted for by renal clearance (CLR)” value [3] was greater than 95%. For the same compound, the “renal clearance (CLR) of unbound acamprosate” value ([3]; healthy adults) was 13.4 to 23.4 L/h, the “fu (plasma protein binding)” value ([3]; humans) was 1 and the “initial unbound plasma concentration (C0,u)” value ([3]; intravenous (bolus), doses of 333–2130 mg) was 154 to 768 µM. The “unbound steady-state plasma concentration (Cmax,u)” value ([3]; oral, doses of 333–2130 mg) was 2 to 5 µM.

Reference: publication PMC7238232, “Acamprosate Is a Substrate of the Human Organic Anion Transporter (OAT) 1 without OAT3 Inhibitory Properties: Implications for Renal Acamprosate Secretion and Drug–Drug Interactions” (Pharmaceutics, 2020)
